Data: the NIST ThermoML archive (doi:10.1016/j.jct.2013.11.036)

Assay: mn = molality of the nth substance listed, in mol/kg
Conditions: Liquid, Constant-volume piezometry

CCCO [propan-1-ol] + O
Conditions	mass density [kg/m3]
383.2 K, 3256 kPa, m1 = 7.407	879.4
383.2 K, 6865 kPa, m1 = 7.407	881.7
383.2 K, 12651 kPa, m1 = 7.407	885.3
393.03 K, 3256 kPa, m1 = 14.38	830.8
393.03 K, 6453 kPa, m1 = 14.38	833.7
393.03 K, 9885 kPa, m1 = 14.38	836.6
393.03 K, 13239 kPa, m1 = 14.38	838.9
394.81 K, 3472 kPa, m1 = 2.531	911.1
394.81 K, 7845 kPa, m1 = 2.531	913.4
394.81 K, 11768 kPa, m1 = 2.531	915.6
398.15 K, 5000 kPa, m1 = 0.869	932
398.15 K, 5000 kPa, m1 = 2.465	912.7
398.15 K, 10000 kPa, m1 = 0.869	934.6
398.15 K, 10000 kPa, m1 = 2.465	915.5
398.15 K, 20000 kPa, m1 = 0.869	939.5
398.15 K, 20000 kPa, m1 = 2.465	920.8
398.15 K, 30000 kPa, m1 = 0.869	943.9
398.15 K, 30000 kPa, m1 = 2.465	925.7
398.15 K, 40000 kPa, m1 = 0.869	948
398.15 K, 40000 kPa, m1 = 2.465	930.1
410.72 K, 3923 kPa, m1 = 56.35	771.4
410.72 K, 10787 kPa, m1 = 56.35	780.5
423.15 K, 5000 kPa, m1 = 0.869	909.2
423.15 K, 5000 kPa, m1 = 2.465	888.1
423.15 K, 10000 kPa, m1 = 0.869	912.1
423.15 K, 10000 kPa, m1 = 2.465	891.4
423.15 K, 20000 kPa, m1 = 0.869	917.6
423.15 K, 20000 kPa, m1 = 2.465	897.5
423.15 K, 30000 kPa, m1 = 0.869	922.6
423.15 K, 30000 kPa, m1 = 2.465	903.1
423.15 K, 40000 kPa, m1 = 0.869	927
423.15 K, 40000 kPa, m1 = 2.465	908
423.61 K, 3432 kPa, m1 = 14.38	797.3
423.61 K, 6453 kPa, m1 = 14.38	800.5
423.61 K, 10042 kPa, m1 = 14.38	804.1
423.61 K, 12827 kPa, m1 = 14.38	806.4
426.33 K, 3668 kPa, m1 = 2.531	880.3
426.33 K, 6865 kPa, m1 = 2.531	882.1
426.33 K, 10787 kPa, m1 = 2.531	884.4
427.06 K, 4001 kPa, m1 = 7.407	834.6
427.06 K, 6453 kPa, m1 = 7.407	836.9
427.06 K, 10375 kPa, m1 = 7.407	839.8
448.15 K, 5000 kPa, m1 = 0.869	883
448.15 K, 5000 kPa, m1 = 2.465	860.5
448.15 K, 10000 kPa, m1 = 0.869	886.4
448.15 K, 10000 kPa, m1 = 2.465	864.4
448.15 K, 20000 kPa, m1 = 0.869	892.7
448.15 K, 20000 kPa, m1 = 2.465	871.5
448.15 K, 30000 kPa, m1 = 0.869	898.3
448.15 K, 30000 kPa, m1 = 2.465	877.9
448.15 K, 40000 kPa, m1 = 0.869	903.2
448.15 K, 40000 kPa, m1 = 2.465	883.5
457.85 K, 3589 kPa, m1 = 14.38	754.1
457.85 K, 8198 kPa, m1 = 14.38	760.4
457.85 K, 13141 kPa, m1 = 14.38	766.1
463.81 K, 4805 kPa, m1 = 7.407	790.8
463.81 K, 7355 kPa, m1 = 7.407	793.5
463.81 K, 10787 kPa, m1 = 7.407	796.8
472.74 K, 3668 kPa, m1 = 2.531	826.7
472.74 K, 6531 kPa, m1 = 2.531	829.7
472.74 K, 10297 kPa, m1 = 2.531	832.6
486.26 K, 7512 kPa, m1 = 56.35	668.9
486.26 K, 11278 kPa, m1 = 56.35	680.2
500.33 K, 4982 kPa, m1 = 2.531	790
500.33 K, 7100 kPa, m1 = 2.531	792.6
500.33 K, 9316 kPa, m1 = 2.531	794.5
501.66 K, 4491 kPa, m1 = 14.38	685
501.66 K, 6943 kPa, m1 = 14.38	691.7
501.66 K, 10415 kPa, m1 = 14.38	699.7
501.66 K, 14298 kPa, m1 = 14.38	706.5
504.03 K, 4805 kPa, m1 = 7.407	730.7
504.03 K, 7669 kPa, m1 = 7.407	735.5
504.03 K, 9807 kPa, m1 = 7.407	739.6
504.03 K, 10866 kPa, m1 = 7.407	741.9
536.99 K, 10160 kPa, m1 = 56.35	558.4
536.99 K, 11140 kPa, m1 = 56.35	566.4
536.99 K, 11591 kPa, m1 = 56.35	573.2
537.32 K, 9885 kPa, m1 = 14.38	619.3
537.32 K, 10611 kPa, m1 = 14.38	628.3
537.32 K, 14298 kPa, m1 = 14.38	642.1
538.96 K, 7433 kPa, m1 = 2.531	728.6
538.96 K, 8649 kPa, m1 = 2.531	731.3
538.96 K, 11023 kPa, m1 = 2.531	736.1
543.97 K, 7335 kPa, m1 = 7.407	653.7
543.97 K, 10532 kPa, m1 = 7.407	666.5
543.97 K, 12749 kPa, m1 = 7.407	673.5
574.64 K, 11886 kPa, m1 = 56.35	322.1
574.64 K, 13082 kPa, m1 = 56.35	409.5
574.64 K, 14004 kPa, m1 = 56.35	441.1
574.64 K, 14509 kPa, m1 = 56.35	456.5
574.64 K, 15043 kPa, m1 = 56.35	468
575.95 K, 11768 kPa, m1 = 14.38	437.4
575.95 K, 11886 kPa, m1 = 14.38	475.9
575.95 K, 13317 kPa, m1 = 14.38	509.3
575.95 K, 13729 kPa, m1 = 14.38	521.1
577.86 K, 11717 kPa, m1 = 2.531	643.6
577.86 K, 11768 kPa, m1 = 2.531	652.5
577.86 K, 12160 kPa, m1 = 2.531	656.7
582.08 K, 12239 kPa, m1 = 7.407	540
582.08 K, 12866 kPa, m1 = 7.407	557.8
582.08 K, 13670 kPa, m1 = 7.407	567.6
582.08 K, 14377 kPa, m1 = 7.407	576.7
